This note sets out measurements from patent publication EP4782449A1, “TRICYCLIC PYRIDINE COMPOUND ACTING AS SARM1 ENZYME ACTIVITY INHIBITOR, AND USE THEREOF” (Artivila (ShenZhen) Innovation Center, Ltd., priority 2023, dated 2025).

The structures appear in SMILES notation. Where only a bound is given, the exact number is not on record here.

For one test, the target named is T1, SARM1 (Homo sapiens, UniProt Q6SZW1).
T1 construct: inventors produced full-length SARM1 for NAD enzyme activity experiments, and used it for screening; His (C); made in house; host or cells: HEK293 cells, transient transfection; supernatant of digitonin lysate, no further purification described
T1 sequence (Q6SZW1 28-724): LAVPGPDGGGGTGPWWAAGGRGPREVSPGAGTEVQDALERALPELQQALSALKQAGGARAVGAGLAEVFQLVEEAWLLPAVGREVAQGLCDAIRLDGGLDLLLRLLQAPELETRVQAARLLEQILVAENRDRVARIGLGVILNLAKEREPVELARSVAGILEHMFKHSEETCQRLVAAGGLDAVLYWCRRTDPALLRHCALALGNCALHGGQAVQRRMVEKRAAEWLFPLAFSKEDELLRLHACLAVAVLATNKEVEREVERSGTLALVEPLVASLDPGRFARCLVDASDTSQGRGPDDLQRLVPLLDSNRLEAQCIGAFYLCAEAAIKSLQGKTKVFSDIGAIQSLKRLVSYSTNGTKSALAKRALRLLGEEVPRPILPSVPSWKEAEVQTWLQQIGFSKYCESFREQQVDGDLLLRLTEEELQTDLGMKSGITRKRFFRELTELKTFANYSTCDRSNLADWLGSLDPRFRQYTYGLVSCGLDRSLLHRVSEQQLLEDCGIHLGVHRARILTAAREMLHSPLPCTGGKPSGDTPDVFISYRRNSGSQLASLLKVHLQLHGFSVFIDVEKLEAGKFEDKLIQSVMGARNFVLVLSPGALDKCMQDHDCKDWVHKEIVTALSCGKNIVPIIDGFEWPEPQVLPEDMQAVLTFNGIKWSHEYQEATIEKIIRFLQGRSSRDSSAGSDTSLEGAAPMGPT
Put plainly: In vitro biochemical assay for inhibiting SARM1 enzyme activity (PC6 fluorescence, NADase). Particulars: full-length SARM1 from transfected HEK293 cells; 50 µM NAD, 50 µM PC6, 50 µM NMN activator; room temperature, 30 minutes; read-out: IC50. The procedure: The gene sequence of SARM1 protein was amplified using PCR, and the PCR amplification product was constructed into pcDNA3.1-HIS-C plasmid. The above construction was completed by YouBio(Hunan, China). HEK293 cells were cultured in 10 cm dishes using DMEM, and the cells were transfected with 15 μg pcDNA3.1-SARM[…]-C expression plasmid on the following day. Cells were collected 48 hours after transfection, and SARM1 protein expressed in the cells was obtained by digitonin lysis for in vitro activity assay experiments. The specific procedure was as follows: Cells were digested with trypsin-EDTA, then centrifuged at 1000 rpm for 5 minutes, washed once with PBS, and then resuspended in PBS containing 100 μM digitonin, with 0.6 mL PBS for the cells in per 10 cm dish, and lysed for 5 minutes. […] Then the supernatant containing SARM1 protein was collected by centrifugation at 5000 rpm for 10 minutes. […] A group without inhibitor was used as control group. All mixtures were incubated at room temperature for 10 minutes. Then, 50 μM NAD and 50 μM PC6 as substrates and 50 μM NMN as an activator were added to the SARM1 protein incubated with the inhibitor, and the reaction was carried out at room temperature for 30 minutes. The concentrations of each component were the final concentrations in the reaction system. […] Finally, the reaction rate was used to represent the protein activity and calculate the half-maximal inhibitory concentration.

Test [1] deals with dorsal root ganglion explants. The test is described as follows: Axonal Wallerian degeneration assay in mouse DRG explant culture. The test is classed as cell-based, C57BL/6 male mice. The note with it: 10 µM test compound, 2 hours pretreatment, axons transected, images at 0 hour and 24 hours. The source says: The experimental method was based on Gerdts J et al. (Gerdts J, Sasaki Y, Vohra B, Marasa J, Milbrandt J. Image-based screening identifies novel roles for IkappaB kinase and glycogen synthase kinase 3 in axonal degeneration. J Biol Chem. 2011 Aug 12;286(32):28011-8).
Dorsal root ganglia were dissected from 2-month-old C57BL/6 male mice and placed in 35 mm culture dishes containing pre-cooled HBSS buffer. Excess tissue from each dorsal root ganglion was removed and cut into 2-3 explants using a scalpel, and the explants were planted in wells of a 96-well plate coated with 100 ng/mL Matrigel (Corning). 100 µL of DRG culture medium (Neurobasal medium (Gibco) containing 2% B-27 (Gibco), 1% GlutaMax (Gibco), and 10 ng/mL NGF (MCE)) was added, then cultured in a 37°C incubator for one week, with medium change on day 4, and experiments were performed on day 8.
0.1 µL of 10 mM test compound was dissolved in 100 µL DRG culture medium to prepare new culture medium containing 10 µM test compound. The culture medium in the 96-well plate was aspirated and new culture medium containing the test compound was added. Then the dorsal root ganglion explants were incubated with the medium in a 37°C incubator for 2 hours for pre-protection. After 2-hour pretreatment, a glass electrode was used to transect axons in the area near the tissue block, and bright-field images of axons in the same area were captured at 0 hour and 24 hours post axonal degeneration using a 20x objective lens of a microscope (Olympus). Axonal integrity was evaluated using an in-house developed script.

As for `CN1Cc2cnccc2-c2ccc(N3CCC(Cc4ccc(F)cc4)C3=O)cc2C1` (stereo not shown) [Compound 133], the IC50 on SARM1 was 100 to 1000 nM. The “Degree of Protection Against Axonal Wallerian Degeneration” value (“Degree” below) in test [1] was “B (partial protection (B): 20% to 50%)”.
Consider `O=C1C(Cc2cc(F)c(F)c(F)c2)CCN1c1ccc2c(c1)COc1cnccc1-2` (stereo not shown) [Compound 5], for which the IC50 on SARM1 lay within 1000 to 10000 nM. Further, in test [1], the “Degree” value is recorded as “A (substantial protection (A) >50%)”.
Taken in the same sequence, the figures for `COc1ccc(CCC(=O)Nc2ccc3c(c2)COc2cnccc2-3)cc1` [Compound 78] were 100 to 1000 nM and “A (substantial protection (A) >50%)”.
Taken in the same sequence, the figures for `N#Cc1ccc(CNC(=O)Nc2ccc3c(c2)COc2cnccc2-3)cc1` [Compound 70] were 1000 to 10000 nM and “B (partial protection (B): 20% to 50%)”.
Taken in the same sequence, the figures for `O=C1C(Cc2cc(F)cc(F)c2)CCN1c1ccc2c(c1)COc1cnccc1-2` (stereo not shown) [Compound 4] were 100 to 1000 nM and “A (substantial protection (A) >50%)”.
As for `CC1Oc2cnccc2-c2ccc(N3CCC(Cc4ccc(F)cc4)C3=O)cc21` (stereo not shown) [Compound 147, 3-(4-fluorobenzyl)-1-(6-methyl-6H-isochromeno[3,4-c]pyridin-8-yl)pyrrolidin-2-one], on SARM1, the IC50 is less than 100 nM. In addition, the “Degree” value in test [1] is reported as “A (substantial protection (A) >50%)”.
As for `O=C(COc1ccc(F)cc1)Nc1ccc2c(c1)COc1cnccc1-2` [Compound 74], the concentration for half-maximal inhibition (IC50) at SARM1 is less than 100 nM. Moreover, the “Degree” value in test [1] was “B (partial protection (B): 20% to 50%)”.
Taken in the same sequence, the figures for `O=C(NCc1ccc(F)cc1)Nc1ccc2c(c1)COc1cnccc1-2` [Compound 45, 1-(4-fluorobenzyl)-3-(6H-isochromeno[3,4-c]pyridin-8-yl)urea] were less than 100 nM and “A (substantial protection (A) >50%)”.
For `O=C1C(Cc2ccc3c(c2)CC3)CCN1c1ccc2c(c1)COc1cnccc1-2` (stereo not shown) [Compound 19] the same measures were 1000 to 10000 nM and “A (substantial protection (A) >50%)”.
For `O=C(CCc1cccs1)Nc1ccc2c(c1)COc1cnccc1-2` [Compound 138] the same measures were less than 100 nM and “A (substantial protection (A) >50%)”.
Turning to `[2H]C1([2H])Oc2cnccc2-c2ccc(N3CCC(Cc4ccc(F)cc4)C3=O)cc21` (stereo not shown) [Compound 146, 3-(4-fluorobenzyl)-1-(6H-isochromeno[3,4-c]pyridin-8-yl-6,6-d2)pyrrolidin-2-one], the IC50 at SARM1 is less than 100 nM. Moreover, in test [1], the “Degree” value was “A (substantial protection (A) >50%)”.
Taken in the same sequence, the figures for `O=C(CCc1cccnc1)Nc1ccc2c(c1)COc1cnccc1-2` [Compound 50] were 100 to 1000 nM and “A (substantial protection (A) >50%)”.
Taken in the same sequence, the figures for `O=C(CCc1ccc(F)cc1)Nc1ccc2c(c1)COc1cncc(Cl)c1-2` [Compound 140] were 100 to 1000 nM and “B (partial protection (B): 20% to 50%)”.
On to `O=C1C(Cc2cc3ccccc3o2)CCN1c1ccc2c(c1)COc1cnccc1-2` (stereo not shown) [Compound 59], for which the IC50 at SARM1 is 1000 to 10000 nM. For the same compound, the “Degree” value in test [1] is given as “B (partial protection (B): 20% to 50%)”.
For `O=C(CCc1ccc(C(F)(F)F)cc1)Nc1ccc2c(c1)COc1cnccc1-2` [Compound 32] the same measures were 100 to 1000 nM and “B (partial protection (B): 20% to 50%)”.
For the compound `O=C(NCc1ccc(Cl)c(Cl)c1)Nc1ccc2c(c1)COc1cnccc1-2` [Compound 65], the IC50 at SARM1 was 1000 to 10000 nM. The “Degree” value in test [1] is on record as “B (partial protection (B): 20% to 50%)”.
For `O=C(CCc1ccc(Br)cc1)Nc1ccc2c(c1)COc1cnccc1-2` [Compound 22] the same measures were 100 to 1000 nM and “A (substantial protection (A) >50%)”.
